Data set [1] is described as follows: Toxicity test, subcutaneous injection. Format: in vivo. As to the method: pGlu-Asn-Ser-Pro-Arg-Gly-NH2 acetate was subcutaneously injected to a SD strain rat at a dose of 1 mg/kg.
Data set [2] relates to cells of rat cerebral cortex. Kind of data set: Action on glutamate-induced neurocyte disorder (in vitro), propidium iodide staining. It counts as cell-based. The conditions noted are these: for inhibitory action against neuronal death induced by glutamate: 4 day treatment, glutamate 1 mM. Here is the method:
The cerebral cortex of rat (0-day-old) was incubated at 37°C in a Hank's solution containing 1.5 mg/mL of dispase, and then cells were isolated. The neurocytes were dispersed on a poly-L-lysine-coated multiple well plate at a density of approx. 4 x 10^4 cells/cm^2, and then to the plate was added cytosine-β-arabinofuranoside (20 µM). The nerocytes were cultured on the plate for 4 days.
The nerocytes were identified by indirect fluorescent method using a neuro-filament antibody
The cultured neurocytes were washed with a Hank's solution and further incubated at 37°C for 30 minutes under atmospheric conditions. Incubated neurocytes were again incubated for 10 minutes in a Hank's solution containing glutamate. Then, they were washed, and further incubated for one hour. At 15 minutes before the incubation was complete, propidium iodide (4.6 µg/mL) was added. After the incubations were complete, the incubated neurocytes were washed with PBS (phosphate buffer solution containing sodium chloride), and then observed using fluorescence microscope.
The pGlu-Asn-Ser-Pro-Arg-Gly-NH2 acetate or AVP(4-9) was added to the 4 day-cultured solution prior to the glutamate treatment.

Where a SMILES comes first, the peptide text is derived from it.

For `N=C(N)NCCC[C@H](NC(=O)[C@@H]1CCCN1C(=O)[C@H](CO)NC(=O)[C@H](CC(N)=O)NC(=O)[C@@H]1CCC(=O)N1)C(=O)NCC(N)=O` [pGlu-Asn-Ser-Pro-Arg-Gly-NH2 acetate] (HELM PEPTIDE1{[Glp].N.S.P.R.G.[am]}$$$$V2.0), in data set [1] (rat, in vivo, sc, 1 mg/kg), the “changes observed after subcutaneous injection” value is on record as “No noticeable changes were observed”. Also, the “inhibitory action against neuronal death induced by glutamate” value in data set [2] (0.1 nM test substance) and in data set [2] (1 nM test substance) was “showed an inhibitory action” each time. Further, the “inhibitory action against glutamate toxicity in the presence of V1 receptor antagonist [Pmp^1, Tyr(Me)^2]AVP” value in data set [2] ([Pmp^1, Tyr(Me)^2]AVP 0.1 nM) is reported as “reduced”; in data set [2] ([Pmp^1, Tyr(Me)^2]AVP 1 nM), “reduced”.
For `N=C(N)NCCC[C@H](NC(=O)[C@@H]1CCCN1C(=O)[C@H](CO)NC(=O)[C@H](CC(N)=O)NC(=O)[C@@H]1CCC(=O)N1)C(=O)NCC(N)=O` [pGlu-Asn-Ser-Pro-Arg-Gly-NH2] (HELM PEPTIDE1{[Glp].N.S.P.R.G.[am]}$$$$V2.0), the “toxicity in the conventional toxicity test” value in data set [1] (summary statement) is recorded as “no specific toxicity”.
Turning to “[pGlu^4, Cyt^5] AVP (4-9) [AVP(4-9), reference compound]”, the “inhibition of the glutamate-induced neuronal death” value in data set [2] (1 µM test substance) and in data set [2] (10 µM test substance) was “inhibited” each time.
